Experimental findings from patent US12257253B2, “Triamterene or nolatrexed for use in the treatment of phenylketonuria” (SOM INNOVATION BIOTECH, S.A., priority 2019, dated 2025) are described below.

Experiment [1] has as its target T1, Arg261Gln (R261Q) PAH (Homo sapiens (Human), UniProt P00439, R261Q). The experiment in a line: Phenylalanine hydroxylase residual protein amount (dot blot, COS-7 lysates). Format: cell-based. As to conditions: COS-7 cells, compound 10 μM (sepiapterin 5 μM), 48 h; read-out: PAH protein level (immune blot signal) R261Q PAH Mean. Here is the method:
(§1) 3. Phenylalanine Hydroxylase Residual Protein Amount
(§2) The analysis of the residual PAH protein amount was based on the method described in Gersting S. W. et al., Human Molecular Genetics, 2010, 19(10), 2039-2049 with modifications.
(§3) Detection of the residual PAH protein amount was performed as a dot blot using the lysates obtained from the cell culture where transiently transfected COS-7 cells (with wild-type PAH or PAH variant) were exposed for 48 h to compounds. The experiment was carried out from the same samples as used for measuring enzyme activities.
(§4) 2 μl of the lysate were dropped onto the nitrocellulose membrane. The membrane was allowed to air dry at room temperature for 30 min followed by 40 min blocking in 5% milk in TBS-Tween (room temperature). The membrane was incubated with the mouse monoclonal primary antibody specific for PAH (Millipore, Cat. No. MAB5278, 1:1000 dilution in 5% milk in TBS-Tween) for overnight at 4° C. Next, the membrane was washed (3×10 min in TBS-Tween) and incubated with the secondary HRP-conjugated antibody (anti-mouse antibody; Santa Cruz Biotechnology, Inc., Cat. No. sc-2005; 1:1000 dilution in 5% milk in TBS-Tween) followed by thorough washing in TBS-Tween (3×10 min) and distilled water (1×10 min). Blots were visualized with Pierce™ ECL substrate (ThermoFisher Scientific, Cat No. 32106) and chemiluminescence was monitored with a DIANA III Imaging system or ChemiDoc™ MP Imaging System (BioRad). To analyze the compound effect on the PAH protein amount densitometry analysis was performed using ImageJ Software.
(§5) The effect of compound on PAH protein amount was calculated from triplicates. As for determination of the enzyme activity the background of the not transfected cells (NT) was subtracted from the transfected cells (NCC or compound treated). In the next step delta of the NCC versus compound treated cells was calculated. Residual protein amount greater than 100% represents an increase in the stability of the enzyme with respect to NCC.

The target in experiment [2] is T2, wild-type PAH (Homo sapiens (Human), UniProt P00439). Described as above. Format: cell-based. As to conditions: COS-7 cells, compound 10 μM (sepiapterin 5 μM), 48 h; read-out: PAH protein level (immune blot signal) WT PAH Mean. Here is the method: as §1, §2, §3, §4, §5
T2 sequence (P00439 whole entry): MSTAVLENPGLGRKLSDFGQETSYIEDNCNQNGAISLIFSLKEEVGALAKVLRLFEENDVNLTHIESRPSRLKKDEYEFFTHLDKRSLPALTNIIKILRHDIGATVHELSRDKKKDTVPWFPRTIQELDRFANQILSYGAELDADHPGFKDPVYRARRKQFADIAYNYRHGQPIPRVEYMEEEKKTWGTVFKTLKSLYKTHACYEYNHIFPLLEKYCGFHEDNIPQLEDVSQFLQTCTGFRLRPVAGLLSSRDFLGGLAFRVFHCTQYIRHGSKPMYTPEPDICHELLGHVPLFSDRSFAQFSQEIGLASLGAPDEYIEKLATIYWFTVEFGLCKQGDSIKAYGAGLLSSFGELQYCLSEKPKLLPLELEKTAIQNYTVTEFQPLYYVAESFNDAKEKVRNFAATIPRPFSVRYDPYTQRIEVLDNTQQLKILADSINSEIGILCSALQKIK
For experiment [3], the target named is T1, Arg261Gln (R261Q) PAH. The experiment is described as follows: Thermal stability shift assay (DSF). The class given is binding. As to conditions: compound 30 μM (BH4 43 μM). From the text: (§6) 1. Thermal Stability Shift Assay
(§7) Thórólfsson et al. (Biochemistry, 2002, 41(24), 7573-7585) describe that the thermal denaturation of hPAH occurs in three stages: (i) unfolding of the four regulatory domains, which is responsible for the low-temperature calorimetric transition (ii) unfolding of two (out of the four) catalytic domains, which is responsible for the high-temperature transition; and (iii) irreversible protein denaturation. The most important domain for stabilization is the regulatory domain.
(§8) Thus, to test the compound effect on thermal stability of the target protein a thermal stability shift assay (also called differential scanning fluorimetry (DSF)) was performed [Niesen F. H. et al., Nat Protoc., 2007, 2(9), 2212-2221; Gersting S. W. et al., Human Molecular Genetics, 2010, 19(10), 2039-2049; and Gersting S. W. et al., J. Biol Chem. 2010, 285(40), 30686-30697]. DSF monitors thermal unfolding of proteins in the presence of a fluorescent dye (SYPRO Orange; λexc=465 nm, λem=610 nm) and was performed using a real-time PCR instrument (Applied BioSystems 7000HT Fast Real-Time PCR System). Compounds that increase the midpoints of thermal denaturation (Tm) are considered to bind and stabilize the protein.
(§9) In brief, purified wild-type or Arg261Gln (which is the most frequent mutation responsive to BH4) PAH proteins (diluted in 20 mM NaHEPES, pH 7.0 and 200 mM NaCl, 2 mM DTT to 2 mg/ml) were used at a final concentration of 0.2 mg/ml protein per sample. The compounds were tested at a final concentration of 30 μM. A no compound control (NCC) was used according to the compound solvent at a final concentration of 2% (H2O, DMSO, ethanol, methanol). As a positive control we used the natural cofactor 6R-L-erythro-5,6,7,8-tetrahydrobiopterin (BH4, CAS 69056-38-8) stabilized in 100 mM dithiothreitol (DTT), in a final concentration of 43 μM. To exclude unspecific effects of the compound to the dye, a no protein control (NPC) was added (buffer, compound, dye). The measurement was performed in duplicates and samples were denatured by scanning a temperature range of 20 to 75° C. at a scan rate of 0.5° C./min.
(§10) The data was normalized and the respective Tm values were calculated by bi-phasic equation to determine temperatures at which half denaturation occurred (Software GraphPadPrism). To identify compound specific effects on the thermal stability of the target protein, the reference Tm (NCC) was used to calculate the temperature shift between compound treated and not treated protein (Tm−TmNCC), from duplicates, to provide transition midpoints shifts (ΔTm1 and ΔTm2). Tm1 and Tm2 are the two different transition mid point of the unfolding process of the protein as the tetrameric protein PAH unfolds in two steps due to its domains. A shift in Tm1 of 2° C. reflects a relevant increase in thermal stability on the regulatory domain and, thus, is considered a positive result.

Experiment [4] has as its target T2, wild-type PAH. The experiment in a line: Thermal stability shift assay (DSF). As to conditions: compound 30 μM (BH4 43 μM). Format: binding.
From the text: as §6, §7, §8, §9, §10

The mark [5] stands for this setting: shift of transition midpoint 1 vs NCC.
Setting [6] is: shift of transition midpoint 2 vs NCC.

Each structure is given as a SMILES string.

T1 sequence (P00439 whole entry R261Q): as the sequence (P00439 whole entry) above, with R261Q counted along it

Take `Nc1nc(N)c2nc(-c3ccccc3)c(N)nc2n1` [Triamterene, 2,4,7-triamino-6-phenylpteridine]: the PAH protein level (% of control) at 10 µM was determined as 130% on Arg261Gln (R261Q) PAH [1] and 110% at wild-type PAH [2]. Besides, at Arg261Gln (R261Q) PAH [3] (setting [5]), the “ΔTm1 R261Q PAH” value was found to be 2.21 °C. For the same molecule, on Arg261Gln (R261Q) PAH [3] (setting [6]), the “ΔTm2 R261Q PAH” value came to 2.82 °C. The “ΔTm1 WT PAH” value at wild-type PAH [4] (setting [5]) was determined as 0.33 °C. Moreover, the “ΔTm2 WT PAH” value on wild-type PAH [4] (setting [6]) amounted to 3.23 °C.
